Converted amounts (≈) assume the structure as drawn.
Assays:
S. aureus = experiment: MIC S. aureus (standard MIC assay modified by inclusion of cyclodextrin); format: cell-based; settings: Staphylococcus aureus
Protocol: (§1) Compounds of the present invention were assayed for antibacterial activity against a range of pathogenic organisms (strains of S aureus, S pneumoniae, E faecalis, H influenzae and M catarrhalis) in a standard MIC assay modified by the inclusion of cyclodextrin, to assist with solubility.

S. pneumo = experiment: MIC S. pneumo (standard MIC assay modified by inclusion of cyclodextrin); format: cell-based; settings: Streptococcus pneumoniae
Protocol: as §1

H. influenzae = experiment: MIC H. influenzae (standard MIC assay modified by inclusion of cyclodextrin); format: cell-based; settings: Haemophilus influenzae
Protocol: as §1

[1] = target: T1, recombinant H. influenzae MRS (Haemophilus influenzae, UniProt P43828); experiment: Enzyme Inhibition (H. influenzae MRS) aminoacylation assay; format: biochemical; settings: read-out: IC50 against H. influenzae MRS
T1 construct: made in house
T1 sequence (P43828 whole entry): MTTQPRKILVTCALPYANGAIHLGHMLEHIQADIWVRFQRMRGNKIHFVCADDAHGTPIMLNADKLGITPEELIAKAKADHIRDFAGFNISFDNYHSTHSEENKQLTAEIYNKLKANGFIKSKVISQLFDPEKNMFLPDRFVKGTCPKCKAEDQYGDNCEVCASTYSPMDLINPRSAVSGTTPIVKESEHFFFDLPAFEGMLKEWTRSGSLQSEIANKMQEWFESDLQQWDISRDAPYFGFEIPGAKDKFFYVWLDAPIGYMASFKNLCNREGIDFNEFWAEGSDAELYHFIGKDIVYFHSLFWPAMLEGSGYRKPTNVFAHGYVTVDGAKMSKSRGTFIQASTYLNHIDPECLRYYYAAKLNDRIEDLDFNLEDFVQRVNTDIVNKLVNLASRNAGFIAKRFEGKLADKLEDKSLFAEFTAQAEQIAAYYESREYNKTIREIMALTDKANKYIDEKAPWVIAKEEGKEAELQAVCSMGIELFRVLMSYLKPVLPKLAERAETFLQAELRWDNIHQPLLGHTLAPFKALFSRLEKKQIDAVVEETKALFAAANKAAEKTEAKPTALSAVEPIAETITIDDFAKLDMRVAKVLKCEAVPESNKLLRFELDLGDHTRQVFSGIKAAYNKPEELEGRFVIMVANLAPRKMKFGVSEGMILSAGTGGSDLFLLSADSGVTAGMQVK
Protocol: 2. Enzyme Inhibition (H. influenzae MRS)—aminoacylation assay
Compounds of the present invention may be assayed for their ability to inhibit the enzyme methionyl tRNA synthetase (MRS), using recombinant H. influenzae MRS(R. D. Fleischmann et al., Science, 269, 496–512, 1995), as follows:
The reaction is started by adding 20 μl appropriately diluted pure enzyme (pre-incubated with inhibitor) to 25 μl reaction mix for 10 min at room temperature. The reaction is terminated by the addition of 150 μl 167 mM sodium citrate, pH 2.15 containing phosphodiesterase (PDE) SPA beads (0.833 mg/ml). The binding of the radiolabelled product to the bead brings the isotope into close enough proximity to allow radiation from the tritium to excite the scintillant within the bead. Any unbound radiolabel is not close enough to the scintillant to allow this energy transfer, so no signal is generated. Following termination of the reaction, plates are spun at 2500 rpm for 5 min in a Mistral 3000E plate centrifuge (or alternatively allowed to stand for 1 hour). The assay is conducted in 96-well Optiplates (Packard). Plates are counted on a TopCount. (Packard 96 well counter).
Mixed E. coli MRE 600 tRNA and ATP were purchased from Boehringer-Mannheim, L-[methyl-^3H]methionine and phosphodiesterase scintillation proximity (SPA) beads from Amersham Pharmacia Biotech and other reagents from Sigma.

[2] = tested on: S. aureus, S. pneumoniae, and E. faecalis; experiment: MIC against some strains of gram positive pathogens; format: cell-based
Protocol: as §1

[3] = tested on: M catarrhalis and H. influenzae; experiment: MIC against some strains of gram negative pathogens; format: cell-based; settings: Haemophilus influenzae
Protocol: as §1

Q: For `Cc1c(CNCCCNc2nc3cscc3[nH]2)sc(Br)c1Br` [Example 18, N-(4,5-Dibromo-3-methylthiophen-2-ylmethyl)-N′-(1H-thieno[3,4-d]imidazol-2-yl)propane-1,3-diamine], which MIC (S. aureus) is on record?
A: The MIC was 0.13 µg/mL (≈ 0.28 µM).

Q: What about the MIC (S. pneumo) of the same compound?
A: Its MIC is 0.25 µg/mL (≈ 0.539 µM).

Q: And the MIC (H. influenzae)?
A: Its MIC is 8 µg/mL (≈ 17.2 µM).

Q: And the IC50 [1]?
A: The IC50 was no more than 200 nM.

Q: And the MIC [2]?
A: Its MIC is 0.06 to 0.5 µg/mL (≈ 0.129 to 1.08 µM).

Q: What about the MIC [3] of the same compound?
A: Its MIC is 0.13 to 8 µg/mL (≈ 0.28 to 17.2 µM).

Q: Which MIC (S. aureus) does the source give for `C=C(F)c1sc(CNCCCNc2nc3cscc3[nH]2)c(C)c1Br` [Example 21, N-(4-bromo-5-(1-fluorovinyl)-3-methylthiophen-2-ylmethyl)-N′-(1H-thieno[3,4-d]imidazol-2-yl)propane-1,3-diamine] here?
A: The MIC was 0.06 µg/mL (≈ 0.14 µM).

Q: What about the MIC (S. pneumo) of the same compound?
A: Its MIC is 0.25 µg/mL (≈ 0.582 µM).

Q: And the MIC (H. influenzae)?
A: Its MIC is 8 µg/mL (≈ 18.6 µM).

Q: What about the IC50 [1] of the same compound?
A: Its IC50 is no more than 200 nM.

Q: What about the MIC [2] of the same compound?
A: The MIC was 0.06 to 0.5 µg/mL (≈ 0.14 to 1.16 µM).

Q: What about the MIC [3] of the same compound?
A: The MIC was 0.13 to 8 µg/mL (≈ 0.303 to 18.6 µM).

Reference: patent publication US7030137B2, “Substituted thiophenes with antibacterial activity” (Replidyne, Inc., priority 2003, dated 2006)
